From ChEMBL document CHEMBL3880422, “C-terminal modified oxamyl dipeptides as inhibitors of the ICE/ced-3 family of cysteine proteases” (2007)

Key:
Caspase-1 (Mus musculus) = biological target: T1, Caspase-1 (Mus musculus) (UniProt P29452); assay: (§1) Inhibition of mouse recombinant ICE assessed as ratio of irreversible rate constant K3 to dissociation constant of the reversible binding step Ki pre-incubated for 60 mins with Acetyl-Tyr-Val-Ala-Asp-amino-4-methylcoumarin substrate followed by enzyme addition by fluorescence based assay
T1 sequence (whole entry): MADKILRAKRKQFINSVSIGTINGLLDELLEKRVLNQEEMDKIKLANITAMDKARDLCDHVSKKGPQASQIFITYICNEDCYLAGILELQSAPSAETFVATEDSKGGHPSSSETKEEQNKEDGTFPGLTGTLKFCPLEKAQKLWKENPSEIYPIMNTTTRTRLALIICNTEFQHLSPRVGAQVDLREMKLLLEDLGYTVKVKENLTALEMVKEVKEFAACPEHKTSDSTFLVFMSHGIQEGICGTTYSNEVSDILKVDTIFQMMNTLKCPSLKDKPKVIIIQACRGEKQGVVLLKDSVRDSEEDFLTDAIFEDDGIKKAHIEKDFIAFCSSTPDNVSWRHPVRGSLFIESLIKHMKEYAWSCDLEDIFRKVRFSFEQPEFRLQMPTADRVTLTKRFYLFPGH

Caspase-3 (Homo sapiens) = biological target: T2, Caspase-3 (Homo sapiens) (UniProt P42574); assay: as §1, with “of” for “of mouse”, “CPP32 (unknown origin)” for “ICE”
T2 sequence (whole entry): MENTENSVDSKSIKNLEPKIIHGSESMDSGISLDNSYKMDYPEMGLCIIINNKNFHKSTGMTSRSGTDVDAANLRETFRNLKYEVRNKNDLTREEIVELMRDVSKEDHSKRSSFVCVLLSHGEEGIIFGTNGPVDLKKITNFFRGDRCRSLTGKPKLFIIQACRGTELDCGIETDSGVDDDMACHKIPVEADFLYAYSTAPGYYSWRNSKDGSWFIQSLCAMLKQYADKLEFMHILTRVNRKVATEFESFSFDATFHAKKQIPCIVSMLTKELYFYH

Caspase-8 (Homo sapiens) = Caspase-8 (Homo sapiens) (UniProt Q14790); assay: Inhibition of recombinant MCH5 (unknown origin) assessed as ratio of irreversible rate constant K3 to dissociation constant of the reversible binding step Ki pre-incubated for 60 mins with Acetyl-Tyr-Val-Ala-Asp-amino-4-methylcoumarin substrate followed by enzyme addition by fluorescence based assay
Caspase-8 (Homo sapiens), sequence (Q14790 217-374 limits assumed): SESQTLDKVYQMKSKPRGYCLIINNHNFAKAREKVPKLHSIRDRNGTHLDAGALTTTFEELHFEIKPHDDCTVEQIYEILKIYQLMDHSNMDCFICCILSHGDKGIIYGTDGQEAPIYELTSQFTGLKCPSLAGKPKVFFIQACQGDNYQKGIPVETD
Caspase-8 (Homo sapiens), sequence (Q14790 385-479 limits assumed): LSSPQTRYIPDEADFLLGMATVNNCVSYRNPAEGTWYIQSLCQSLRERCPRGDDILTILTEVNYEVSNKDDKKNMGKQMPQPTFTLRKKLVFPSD

Caspase-6 (Homo sapiens) = biological target: T3, Caspase-6 (Homo sapiens) (UniProt P55212); assay: Inhibition of recombinant MCH2 (unknown origin) assessed as ratio of irreversible rate constant K3 to dissociation constant of the reversible binding step Ki pre-incubated for 60 mins with Acetyl-Tyr-Val-Ala-Asp-amino-4-methylcoumarin substrate followed by enzyme addition by fluorescence based assay
T3 sequence (whole entry): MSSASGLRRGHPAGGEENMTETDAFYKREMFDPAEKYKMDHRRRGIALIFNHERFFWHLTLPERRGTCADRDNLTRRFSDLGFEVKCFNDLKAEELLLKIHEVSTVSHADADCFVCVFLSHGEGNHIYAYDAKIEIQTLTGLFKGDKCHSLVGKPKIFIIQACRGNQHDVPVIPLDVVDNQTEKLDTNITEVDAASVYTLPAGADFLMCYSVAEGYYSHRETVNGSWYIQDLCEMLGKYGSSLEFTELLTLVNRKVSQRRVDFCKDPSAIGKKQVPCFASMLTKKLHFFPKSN

Row | Compound | Ratio (Caspase-1 (Mus musculus)) [M⁻¹ s⁻¹] | Ratio (Caspase-3 (Homo sapiens)) [M⁻¹ s⁻¹] | Ratio (Caspase-8 (Homo sapiens)) [M⁻¹ s⁻¹] | Ratio (Caspase-6 (Homo sapiens)) [M⁻¹ s⁻¹]
1 | C[C@H](NC(=O)C(=O)Nc1ccccc1F)C(=O)N[C@@H](CC(=O)O)C(=O)COC(=O)c1c(Cl)cccc1Cl | 172000 | 68900 | 155000 | 129000
2 | C[C@H](NC(=O)C(=O)Nc1cccc2c1CCCC2)C(=O)N[C@@H](CC(=O)O)C(=O)COC(=O)c1c(Cl)cccc1Cl | 16900 to 1.76e+07 | 149000 to 260000 | 21200 to 1.92e+06 | 126000 to 264000
3 | C[C@H](NC(=O)C(=O)Nc1ccccc1I)C(=O)N[C@@H](CC(=O)O)C(=O)COP(=O)(c1ccccc1)c1ccccc1 | 36300 | 78300 | 46300 | 66200
4 | C[C@H](NC(=O)C(=O)Nc1cc(C(C)(C)C)ccc1C(C)(C)C)C(=O)N[C@@H](CC(=O)O)C(=O)COC(=O)c1c(Cl)cccc1Cl | 289000 | 189000 | 306000 | 146000
5 | CC(C)[C@H](NC(=O)C(=O)NC12CC3CC(CC(C3)C1)C2)C(=O)N[C@@H](CC(=O)O)C(=O)COc1c(F)c(F)cc(F)c1F | 184000 | 6330 | 59900 | 10700
6 | C[C@H](NC(=O)C(=O)Nc1cccc2c1CCCC2)C(=O)N[C@@H](CC(=O)O)C(=O)COP(=O)(c1ccccc1)c1ccccc1 | 315000 to 905000 | 139000 to 157000 | 71800 to 1.15e+06 | 120000 to 132000
7 | CC(C)[C@H](NC(=O)C(=O)Nc1ccncc1)C(=O)N[C@@H](CC(=O)O)C(=O)COc1c(F)c(F)cc(F)c1F | 912 | 511 | 1140 | 5580
8 | C[C@H](NC(=O)C(=O)NCc1ccccc1)C(=O)N[C@@H](CC(=O)O)C(=O)COC(=O)c1c(Cl)cccc1Cl | 59100 | 600000 | 203000 | 244000
9 | CC(C)[C@H](NC(=O)C(=O)NCCc1ccccc1)C(=O)N[C@@H](CC(=O)O)C(=O)COc1c(F)c(F)cc(F)c1F | 77100 | 13400 | 16600 | 12600
10 | C[C@H](NC(=O)C(=O)Nc1ccccc1C(C)(C)C)C(=O)N[C@@H](CC(=O)O)C(=O)COC(=O)c1c(Cl)cccc1Cl | 43300 to 537000 | 62900 to 142000 | 30200 to 39100 | 6960 to 191000
11 | C[C@H](NC(=O)C(=O)Nc1ccccc1C(C)(C)C)C(=O)N[C@@H](CC(=O)O)C(=O)COP(=O)(c1ccccc1)c1ccccc1 | 159000 to 625000 | 327000 to 395000 | 282000 to 589000 | 275000 to 484000
12 | CC(C)[C@H](NC(=O)C(=O)Nc1c(F)c(F)nc(F)c1F)C(=O)N[C@@H](CC(=O)O)C(=O)COc1c(F)c(F)cc(F)c1F | 1.22e+06 | 153000 | 389000 | 170000
13 | C[C@H](NC(=O)C(=O)Nc1cc(C(C)(C)C)ccc1C(C)(C)C)C(=O)N[C@@H](CC(=O)O)C(=O)COc1c(F)c(F)cc(F)c1F | 195000 | 221000 | 248000 | 192000
14 | C[C@H](NC(=O)C(=O)NC1CCCCC1)C(=O)N[C@@H](CC(=O)O)C(=O)COC(=O)c1c(Cl)cccc1Cl | 2.02e+06 | 1.17e+06 | 2.14e+06 | 655000
15 | C[C@H](NC(=O)C(=O)NC1CCCCC1)C(=O)N[C@@H](CC(=O)O)C(=O)COP(=O)(c1ccccc1)c1ccccc1 | 2.03e+06 | 137000 | 1.79e+06 | 97500
16 | CC(C)[C@H](NC(=O)C(=O)Nc1c(F)cccc1F)C(=O)N[C@@H](CC(=O)O)C(=O)COc1c(F)c(F)cc(F)c1F | 2.68e+06 | 62900 | 1.83e+06 | 1.08e+06
17 | C[C@H](NC(=O)C(=O)Nc1ccc(F)cc1)C(=O)N[C@@H](CC(=O)O)C(=O)COP(=O)(c1ccccc1)c1ccccc1 | 956000 | 268000 | 2.3e+06 | 424000

Continued, values first:

Row | Ratio (Caspase-1 (Mus musculus)) [M⁻¹ s⁻¹] | Ratio (Caspase-3 (Homo sapiens)) [M⁻¹ s⁻¹] | Ratio (Caspase-8 (Homo sapiens)) [M⁻¹ s⁻¹] | Ratio (Caspase-6 (Homo sapiens)) [M⁻¹ s⁻¹] | Compound
18 | 82100 | 43600 | 0 | 0 | CC(C)[C@H](NC(=O)C(=O)Nc1cccc2ccccc12)C(=O)N[C@@H](CC(=O)O)C(=O)COc1c(-c2ccccc2)oc2ccccc2c1=O
19 | 259000 | 388000 | 125000 | 219000 | C[C@H](NC(=O)C(=O)Nc1ccccc1-c1ccccc1)C(=O)N[C@@H](CC(=O)O)C(=O)COC(=O)c1c(Cl)cccc1Cl
20 | 167000 | 55600 | 37800 | 35000 | C[C@H](NC(=O)C(=O)Nc1ccccc1-c1ccccc1)C(=O)N[C@@H](CC(=O)O)C(=O)COc1ccccc1F
21 | 1.54e+06 | 96300 | 234000 | 161000 | CC(C)[C@H](NC(=O)C(=O)Nc1ccccc1Cl)C(=O)N[C@@H](CC(=O)O)C(=O)COc1c(F)c(F)cc(F)c1F
22 | 127000 | 25400 | 65300 | 31700 | CC(C)[C@H](NC(=O)C(=O)Nc1ccccc1-c1ccccc1)C(=O)N[C@@H](CC(=O)O)C(=O)COc1c(F)c(F)cc(F)c1F
23 | 1.8e+06 | 21000 | 472000 | 16600 | CC(C)[C@H](NC(=O)C(=O)NCc1ccccc1)C(=O)N[C@@H](CC(=O)O)C(=O)COc1c(F)c(F)cc(F)c1F
24 | 1.84e+06 | 286000 | 625000 | 69100 | CC(C)[C@H](NC(=O)C(=O)Nc1cccc2ccccc12)C(=O)N[C@@H](CC(=O)O)C(=O)COc1ccc(O)cc1
25 | 1.08e+06 | 276000 | 1.3e+06 | 230000 | CC(C)[C@H](NC(=O)C(=O)Nc1ccccc1Br)C(=O)N[C@@H](CC(=O)O)C(=O)COc1c(F)c(F)cc(F)c1F
26 | 1.16e+06 | 187000 | 936000 | 214000 | C[C@H](NC(=O)C(=O)NCc1cccc2ccccc12)C(=O)N[C@@H](CC(=O)O)C(=O)COC(=O)c1c(Cl)cccc1Cl
27 | 201000 | 5380 | 48600 | 1430 | CC(C)[C@H](NC(=O)C(=O)NC(c1ccccc1)c1ccccc1)C(=O)N[C@@H](CC(=O)O)C(=O)COc1c(F)c(F)cc(F)c1F
28 | 1.04e+06 | 57400 | 41000 | 261000 | CC(C)[C@H](NC(=O)C(=O)Nc1ccccc1C(F)(F)F)C(=O)N[C@@H](CC(=O)O)C(=O)COc1c(F)c(F)cc(F)c1F
